# Source: ChEMBL document CHEMBL1123754, “N6-phenyladenosines: pronounced effect of phenyl substituents on affinity for A2 adenosine receptors” (J Med Chem, 1987)
# Columns and labels:
# [1] = target: T1, Adenosine receptor A1 (Gallus gallus, UniProt P49892); assay: Displacement of [125I]ABA from adenosine A1 receptor of chick cerebellar membrane
# T1 sequence (P49892 whole entry): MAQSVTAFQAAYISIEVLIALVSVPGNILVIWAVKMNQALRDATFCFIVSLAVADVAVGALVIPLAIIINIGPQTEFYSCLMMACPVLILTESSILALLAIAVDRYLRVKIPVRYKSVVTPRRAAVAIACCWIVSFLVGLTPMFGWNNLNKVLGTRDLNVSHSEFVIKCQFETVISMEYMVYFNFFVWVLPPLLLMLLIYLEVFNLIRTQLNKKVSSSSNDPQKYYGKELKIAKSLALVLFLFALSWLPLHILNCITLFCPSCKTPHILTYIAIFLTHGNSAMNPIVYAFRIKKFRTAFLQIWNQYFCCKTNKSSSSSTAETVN
# [2] = Relative affinities for adenosine A2 and A1 receptors
# [3] = target: Adenosine A2 receptor (Rattus norvegicus, UniProt P29276+P30543)
# Description: Displacement of [3H]-NECA from adenosine A2 receptor of rat striatal membrane
# [4] = target: T1, Adenosine receptor A1; assay: Binding affinity for Adenosine A1 receptor using [125I]-ABA in chick cerebellar membrane; assay type: cell membranes, Cerebellum
IC50 [1] [µM],Selectivity [2],IC50 [3] [µM],IC50 [4] [µM],SMILES
0.0025,,,,OC[C@H]1O[C@@H](n2cnc3c(NC4CCCCC4)ncnc32)[C@H](O)[C@@H]1O
0.0064,275,1.76,,COc1ccc(Nc2ncnc3c2ncn3[C@@H]2O[C@H](CO)[C@@H](O)[C@H]2O)cc1
0.0046,140,0.66,,OC[C@H]1O[C@@H](n2cnc3c(Nc4ccccc4)ncnc32)[C@H](O)[C@@H]1O [N6-PHENYLADENOSINE]
,690,7.64,0.0111,OC[C@H]1OC(n2cnc3c(Nc4cccc(O)c4)ncnc32)[C@H](O)[C@@H]1O (stereo partly drawn)
0.0253,403,10.2,,CCc1cccc(Nc2ncnc3c2ncn3C2O[C@H](CO)[C@@H](O)[C@H]2O)c1 (stereo partly drawn)
0.0131,65,0.86,,OC[C@H]1OC(n2cnc3c(Nc4ccc(F)cc4)ncnc32)[C@H](O)[C@@H]1O (stereo partly drawn)
0.0085,110,0.92,,Cc1ccc(Nc2ncnc3c2ncn3C2O[C@H](CO)[C@@H](O)[C@H]2O)cc1 (stereo partly drawn)
0.0421,220,9.3,,OC[C@H]1OC(n2cnc3c(Nc4cccc(B(O)O)c4)ncnc32)[C@H](O)[C@@H]1O (stereo partly drawn)
0.0103,155,1.6,,OC[C@H]1OC(n2cnc3c(Nc4cccc(F)c4)ncnc32)[C@H](O)[C@@H]1O (stereo partly drawn)
0.0128,75,0.96,,CCc1ccc(Nc2ncnc3c2ncn3C2O[C@H](CO)[C@@H](O)[C@H]2O)cc1 (stereo partly drawn)
0.0085,150,1.28,,OC[C@H]1OC(n2cnc3c(Nc4ccc(I)cc4)ncnc32)[C@H](O)[C@@H]1O (stereo partly drawn)
0.019,620,11.9,,OC[C@H]1OC(n2cnc3c(Nc4cccc(I)c4)ncnc32)[C@H](O)[C@@H]1O (stereo partly drawn)
0.0451,225,10.1,,Nc1cccc(Nc2ncnc3c2ncn3C2O[C@H](CO)[C@@H](O)[C@H]2O)c1 (stereo partly drawn)

SMILES,IC50 [1] [µM],Selectivity [2],IC50 [3] [µM],IC50 [4] [µM]
CCNC(=O)[C@H]1O[C@@H](n2cnc3c(N)ncnc32)[C@H](O)[C@@H]1O [NECA],0.017,,,
